In series [1] the test system is Methicillin-resistant S. aureus ATCC 43300. Put plainly: microbe, parasite or virus in culture. To be noted: for MIC: Staphylococcus aureus. A digest of the protocol: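 Each compound was serially diluted twofold in Mueller Hinton broth, spanning 8 to 0.003 µg mL^−1, and incubated with bacteria for 24 h at 37 °C before visual scoring of growth.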
Series [2] is described as follows: Cytotoxicity MTT assay. Particulars: human. It counts as cell-based, human. A digest of the protocol: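 HepG2 and HEK293 cells, 1.5 × 10^4 per well in DMEM with 1% FBS, were allowed to attach for 24 h, then exposed 24 h at 37 °C to compounds at 100 µM to 0.046 µM in threefold steps. MTT (0.4 mg mL^−1) was added for 2 h, and formazan in DMSO was read at 570 nm. Viability is given as percent of control, corrected for a positive control.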

For series [3], the system named is Vancomycin-resistant S. aureus NARSA VRS4. Description: microbe, parasite or virus in culture. It counts as cell-based, Staphylococcus aureus.
Series [4] concerns Methicillin-sensitive S. aureus ATCC 29213. Put plainly: microbe, parasite or virus in culture. It counts as cell-based, Staphylococcus aureus. Particulars: for MIC: Staphylococcus aureus, ATCC 29213 / MSSA. The procedure:
Antimicrobial activity of compounds was tested against a number of bacterial strains by broth microdilution (BMD) assay with MIC determination, including S. aureus (MSSA ATCC® 29213™, MRSA ATCC® 43300™, VISA NARSA NRS1, VISA NARSA NRS4), Streptococcus pneumoniae (MDR ATCC® 700677™) and Enterococcus faecium (MDR VanA ATCC® 51559™). ATCC strains were sourced from the American Type Culture Collection and NRS strains from NARSA (Network on Antimicrobial Resistance in S. aureus) via BEI Resources (www.beiresources.org). All compounds were prepared to 160 µg mL^−1 solution in water from a stock solution of 1 mM concentration.
[…] […] Standards ranged from 64 to 0.03 µg mL^−1 and compounds from 8 to 0.003 µg mL^−1 with final assay volumes of 100 µL per well. Gram-positive bacteria were cultured in Mueller Hinton broth (MHB) (Bactolaboratories, Cat. no. 211443) at 37 °C overnight. A sample of each culture was then diluted 40-fold in fresh MHB and incubated at 37 °C for 2–3 h. The resultant mid-log phase cultures were added to the compound-containing 96-well plates to give a final cell density of 5 × 10^5 colony forming unit (CFU) mL^−1. All the plates were covered and incubated at 37 °C for 24 h. MICs were the lowest concentration showing no visible growth.

The nature of series [5]: Cytotoxicity MTT assay. It counts as cell-based, human. To be noted: human. This is another data set of the same source.
The test system of a further series is S. aureus ATCC 43300. Put plainly: Membrane permeability assay (propidium iodide). It counts as cell-based, Staphylococcus aureus. Particulars: for Fold higher propidium iodide fluorescence than oritavancin: 16 µg mL^−1, MRSA ATCC 43300. The procedure:
To evaluate the ability of the compounds to disrupt the cytoplasmic membrane integrity, the membrane impermeable fluorescent DNA intercalating dye propidium iodide (PI) was used. Early exponential phase cells were pelleted and washed twice in 10 mM HEPES buffer (pH 7.4) containing 50 µg mL^−1 of CaCl2 and 5 mM glucose, and then re-suspended in the same buffer (4 × 10^8 CFU mL^−1). Cell suspension was added to a 384-well black walled polystyrene plate (Corning, CLS3573) containing compounds, giving a final concentration of 16 µg mL^−1. After 1 h incubation at 37 °C, 5 µg mL^−1 of PI was added and fluorescence was monitored for 90 min using a Tecan Infinite® m1000 Pro Multi-mode reader (excitation/emission 535/620 nm). Data were corrected by subtraction of fluorescence signal arising from untreated cells in the presence of PI. […] Each sample was tested in quadruplicate and independent assays were performed twice showing similar results. Data was analysed and presented using Prism software.

Structures are written as SMILES. Values after ≈ are worked out from the molar mass of the structure shown. Like-named read-outs stand apart in the source and are kept apart here.

Usually CC50 stands for the concentration at which the toxic effect on the cells reaches its halfway point. In the case of `CCCCCCCCCC(=O)N[C@@H](Cc1c[nH]c2ccccc12)C(=O)N[C@H](CC(N)=O)C(=O)N[C@@H](CC(=O)O)C(=O)N[C@@H]1C(=O)NCC(=O)N[C@@H](CCCN)C(=O)N[C@@H](CC(=O)O)C(=O)N[C@H](C)C(=O)N[C@@H](CC(=O)O)C(=O)NCC(=O)N[C@H](CO)C(=O)N[C@@H]([C@H](C)CC(=O)O)C(=O)N[C@@H](CC(=O)c2ccccc2N)C(=O)O[C@@H]1C` [Compound 4, Daptomycin], the MIC was 2 µg/mL (≈ 1.23 µM) in series [1] (ATCC43300 / MRSA, 24 h, read-out: MIC MRSA); 1 µg/mL (≈ 0.617 µM) in series [1] (ATCC43300|MRSA, read-out: MIC S. aureus ATCC 43300 MRSA, NBS); 1 µg/mL (≈ 0.617 µM) in series [1] (ATCC43300|MRSA, read-out: MIC S. aureus ATCC 43300 MRSA, PP); 1 µg/mL (≈ 0.617 µM) in series [1] (ATCC43300|MRSA, read-out: MIC S. aureus ATCC 43300 MRSA, PS); 1 µg/mL (≈ 0.617 µM) in series [1] (ATCC43300|MRSA, read-out: MIC S. aureus ATCC 43300 MRSA, PS+P-80); 3 µg/mL (≈ 1.85 µM) in series [3] (Staphylococcus aureus, VRSA, S. aureus NARSA VRS4, read-out: MIC VRSA). The MIC in series [4] (S. aureus ATCC 29213, read-out: MIC MSSA) was 1 µg/mL (≈ 0.617 µM); in series [4] (non-binding surface plate, read-out: MIC S. aureus ATCC29213 MSSA, NBS) it was 0.5 to 1 µg/mL (≈ 0.309 to 0.617 µM); in series [4] (polypropylene plate, read-out: MIC S. aureus ATCC29213 MSSA, PP), 1 µg/mL (≈ 0.617 µM); in series [4] (polystyrene plate with 0.002% polysorbate-80, read-out: MIC S. aureus ATCC29213 MSSA, PS+P-80) it was 1 µg/mL (≈ 0.617 µM); in series [4] (polystyrene plate, no polysorbate-80, read-out: MIC S. aureus ATCC29213 MSSA, PS), 1 µg/mL (≈ 0.617 µM). The CC50 at 24 h in “Cytotoxicity MTT assay [2]” and in the series “Cytotoxicity MTT assay [5]” was > 500 µM in each case. The “Fold higher propidium iodide fluorescence than oritavancin” value with S. aureus ATCC 43300 (listed as Daptomycin) was 4–6 fold; in the series with S. aureus ATCC 43300 (listed as daptomycin), “approximately 6 fold”.
As for `CCCCCCCCCCC(=O)N[C@@H](CCCCN)C(=O)N[C@@H](CCCCN)C(=O)N[C@@H](CCCCNC(=O)[C@H]1NC(=O)[C@H]2NC(=O)[C@H](NC(=O)[C@@H]3NC(=O)[C@H](CC(N)=O)NC(=O)[C@H](NC(=O)[C@@H](CC(C)C)NC)[C@H](O)c4ccc(c(Cl)c4)Oc4cc3cc(c4O[C@@H]3O[C@H](CO)[C@@H](O)[C@H](O)[C@H]3O[C@H]3C[C@](C)(N)[C@H](O)[C@H](C)O3)Oc3ccc(cc3Cl)[C@H]2O)c2ccc(O)c(c2)-c2c(O)cc(O)cc21)C(=O)O` [Compound 19, nC10CO-KK-K(Vancomycin)-OH], in series [1], the “MIC S. aureus ATCC 43300 MRSA, NBS” value was ≤ 0.016 µg/mL; the “MIC S. aureus ATCC 43300 MRSA, PP” value lay within 0.06 to 0.125 µg/mL; the “MIC S. aureus ATCC 43300 MRSA, PS” value stood at 0.063 µg/mL (≈ 0.0315 µM); the “MIC S. aureus ATCC 43300 MRSA, PS+P-80” value came to 0.063 µg/mL (≈ 0.0315 µM). The “MIC MRSA” value in series [1] (ATCC 43300, 24 h) stood at 0.03 µg/mL (≈ 0.015 µM). Moreover, in the series “Cytotoxicity MTT assay [2]”, the CC50 at 24 h was found to be 355 µM. In series [3] (Vancomycin-resistant NARSA VRS4), the “MIC VRSA” value came to 1 µg/mL (≈ 0.499 µM). Further, in series [4] (ATCC 29213), the “MIC S. aureus ATCC29213 MSSA, NBS” value was ≤ 0.016 µg/mL; the “MIC S. aureus ATCC29213 MSSA, PP” value was 0.125 to 0.25 µg/mL; the “MIC S. aureus ATCC29213 MSSA, PS” value was 0.03 to 0.06 µg/mL; the “MIC S. aureus ATCC29213 MSSA, PS+P-80” value turned out to be 0.031 µg/mL (≈ 0.0155 µM). This molecule also returned a CC50 at 24 h in the series “Cytotoxicity MTT assay [5]” of 290 µM. In the series with S. aureus ATCC 43300, the “Membrane permeabilisation (propidium iodide fluorescence)” value is listed as “little to no effect”.
On to `CNC(=O)[C@H](CCCCNC(=O)[C@H]1NC(=O)[C@H]2NC(=O)[C@H](NC(=O)[C@@H]3NC(=O)[C@H](CC(N)=O)NC(=O)[C@H](NC(=O)[C@@H](CC(C)C)NC)[C@H](O)c4ccc(c(Cl)c4)Oc4cc3cc(c4O[C@@H]3O[C@H](CO)[C@@H](O)[C@H](O)[C@H]3O[C@H]3C[C@](C)(N)[C@H](O)[C@H](C)O3)Oc3ccc(cc3Cl)[C@H]2O)c2ccc(O)c(c2)-c2c(O)cc(O)cc21)NC(=O)[C@H](CCCCN)NC(=O)[C@H](CCCCN)NC(=O)[C@H](CCCCNC(=O)c1ccc(Oc2ccccc2)cc1)NC(=O)c1ccc(Oc2ccccc2)cc1` [Compound 24, POB2K-KK-K(Vancomycin)-NHMe], for which, in series [1], the “MIC S. aureus ATCC 43300 MRSA, NBS” value is ≤ 0.016 µg/mL; the “MIC S. aureus ATCC 43300 MRSA, PP” value turned out to be 1 µg/mL (≈ 0.422 µM); the “MIC S. aureus ATCC 43300 MRSA, PS” value was determined as 2 µg/mL (≈ 0.845 µM); the “MIC S. aureus ATCC 43300 MRSA, PS+P-80” value is ≤ 0.016 µg/mL. The molecule also registered a CC50 at 24 h in “Cytotoxicity MTT assay [2]” of 140 µM. In addition, the “MIC VRSA” value in series [3] (S. aureus NARSA VRS4) turned out to be 0.08 µg/mL (≈ 0.0338 µM). In addition, in series [4] (ATCC 29213), the “MIC MSSA” value was ≤0.016 µg/mL; the “MIC S. aureus ATCC29213 MSSA, PP” value is 1 µg/mL (≈ 0.422 µM); the “MIC S. aureus ATCC29213 MSSA, PS” value came out at 2 µg/mL (≈ 0.845 µM); the “MIC S. aureus ATCC29213 MSSA, PS+P-80” value amounted to 0.031 µg/mL (≈ 0.0131 µM). In the series “Cytotoxicity MTT assay [5]”, this molecule showed a CC50 at 24 h of 100 µM. Also, in the series on S. aureus ATCC 43300, the “Membrane permeabilisation (propidium iodide fluorescence)” value is on record as “comparable fluorescence intensity to oritavancin”.

(Values after paper PMC5750218, “Protein-inspired antibiotics active against vancomycin- and daptomycin-resistant bacteria” (Nature Communications, 2018).)
